How the values were obtained:
[1] = Inhibition of reverse transcriptase L100I mutant in HIV-1 3B infected in human MT4 cells assessed as reduction in virus-induced cytopathic effect incubated for 5 days by MTT assay
[2] = Inhibition of reverse transcriptase Y181C mutant in HIV-1 3B infected in human MT4 cells assessed as reduction in virus-induced cytopathic effect incubated for 5 days by MTT assay
[3] = Inhibition of reverse transcriptase E138K mutant in HIV-1 3B infected in human MT4 cells assessed as reduction in virus-induced cytopathic effect incubated for 5 days by MTT assay
[4] = Inhibition of reverse transcriptase K103N mutant in HIV-1 3B infected in human MT4 cells assessed as reduction in virus-induced cytopathic effect incubated for 5 days by MTT assay
[5] = Inhibition of reverse transcriptase Y188L mutant in HIV-1 3B infected in human MT4 cells assessed as reduction in virus-induced cytopathic effect incubated for 5 days by MTT assay

## COc1cc(-c2ccc(C#N)cc2)ccc1C(O)c1ccnc(Nc2ccc(C#N)cc2)n1 (configuration not stated)
[1]
  EC50: 113 nM
[2]
  EC50: 32 nM
[3]
  EC50: 7.4 nM

## N#Cc1ccc(Nc2nccc([C@@H](O)c3ccc(-c4ccc(C#N)cc4)cc3F)n2)cc1
[1]
  EC50: 380 nM
[4]
  EC50: 50 nM
[2]
  EC50: 78 nM
[3]
  EC50: 9.3 nM

## Cc1cc(-c2ccc(C#N)cc2)ccc1[C@@H](O)c1ccnc(Nc2ccc(C#N)cc2)n1
[1]
  EC50: 2640 nM
[4]
  EC50: 479 nM
[2]
  EC50: 743 nM
[3]
  EC50: 149 nM

## N#Cc1ccc(Nc2nccc([C@@H](O)c3c(F)cc(-c4ccc(C#N)cc4)cc3F)n2)cc1
[1]
  EC50: 341 nM
[4]
  EC50: 36 nM
[5]
  EC50: 2250 nM
[2]
  EC50: 89 nM
[3]
  EC50: 8.4 nM

## Cc1cc(-c2ccc(C#N)cc2)ccc1C(O)c1ccnc(Nc2ccc(C#N)cc2)n1 (configuration not stated)
[1]
  EC50: 184 nM
[4]
  EC50: 18 nM
[5]
  EC50: 623 nM
[2]
  EC50: 31 nM
[3]
  EC50: 9.8 nM

## N#Cc1ccc(Nc2nccc([C@H](O)c3ccc(-c4ccc(C#N)cc4)cc3Cl)n2)cc1
[1]
  EC50: 1580 nM
[4]
  EC50: 251 nM
[2]
  EC50: 799 nM
[3]
  EC50: 206 nM

## N#Cc1ccc(Nc2nccc(C(O)c3ccc(-c4ccc(C#N)cc4)cc3F)n2)cc1 (configuration not stated)
[1]
  EC50: 902 nM
[4]
  EC50: 88 nM
[5]
  EC50: 4180 nM
[2]
  EC50: 112 nM
[3]
  EC50: 29 nM

## N#Cc1ccc(Nc2nccc(C(O)c3ccc(-c4ccc(C#N)cc4)cc3Cl)n2)cc1 (configuration not stated)
[1]
  EC50: 91 nM
[4]
  EC50: 5.9 nM
[5]
  EC50: 297 nM
[2]
  EC50: 14 nM
[3]
  EC50: 7.3 nM

## N#Cc1ccc(Nc2nccc([C@H](O)c3c(F)cc(-c4ccc(C#N)cc4)cc3F)n2)cc1
[1]
  EC50: 1430 nM
[4]
  EC50: 364 nM
[5]
  EC50: 5940 nM
[2]
  EC50: 432 nM
[3]
  EC50: 55 nM

## COc1cc(-c2ccc(C#N)cc2)ccc1[C@H](O)c1ccnc(Nc2ccc(C#N)cc2)n1
[1]
  EC50: 67 nM
[4]
  EC50: 6.7 nM
[5]
  EC50: 88 nM
[2]
  EC50: 15 nM

## N#Cc1ccc(Nc2nccc([C@H](O)c3ccc(-c4ccc(C#N)cc4)cc3C(F)(F)F)n2)cc1
[1]
  EC50: 1740 nM
[4]
  EC50: 1910 nM
[5]
  EC50: > 24100 nM
[2]
  EC50: 1820 nM
[3]
  EC50: 933 nM

## Cc1cc(-c2ccc(C#N)cc2)cc(C)c1[C@H](O)c1ccnc(Nc2ccc(C#N)cc2)n1
[1]
  EC50: 20 nM
[4]
  EC50: 3.9 nM
[2]
  EC50: 7.4 nM
[3]
  EC50: 7.2 nM

## COc1cc(-c2ccc(C#N)cc2)ccc1[C@@H](O)c1ccnc(Nc2ccc(C#N)cc2)n1
[1]
  EC50: 1250 nM
[4]
  EC50: 438 nM
[2]
  EC50: 507 nM
[3]
  EC50: 196 nM

## N#Cc1ccc(Nc2nccc([C@@H](O)c3ccc(-c4ccc(C#N)cc4)cc3C(F)(F)F)n2)cc1
[1]
  EC50: 93 nM
[4]
  EC50: 15 nM
[5]
  EC50: 318 nM
[2]
  EC50: 30 nM
[3]
  EC50: 9.1 nM

## N#Cc1ccc(Nc2nccc(C(O)c3c(F)cc(-c4ccc(C#N)cc4)cc3F)n2)cc1 (configuration not stated)
[1]
  EC50: 410 nM
[4]
  EC50: 61 nM
[5]
  EC50: 3500 nM
[2]
  EC50: 125 nM
[3]
  EC50: 25 nM

## Cc1cc(-c2ccc(C#N)cc2)cc(C)c1C(O)c1ccnc(Nc2ccc(C#N)cc2)n1 (configuration not stated)
[1]
  EC50: 49 nM
[4]
  EC50: 7 nM
[5]
  EC50: 417 nM
[2]
  EC50: 23 nM
[3]
  EC50: 16 nM

## Cc1cc(-c2ccc(C#N)cc2)ccc1[C@H](O)c1ccnc(Nc2ccc(C#N)cc2)n1
[1]
  EC50: 81 nM
[4]
  EC50: 8.6 nM
[5]
  EC50: 264 nM
[2]
  EC50: 19 nM
[3]
  EC50: 5.5 nM

## Cc1cc(-c2ccc(C#N)cc2)cc(C)c1[C@@H](O)c1ccnc(Nc2ccc(C#N)cc2)n1
[1]
  EC50: 165 nM
[4]
  EC50: 21 nM
[5]
  EC50: 2200 nM
[2]
  EC50: 46 nM
[3]
  EC50: 19 nM

## N#Cc1ccc(Nc2nccc([C@H](O)c3ccc(-c4ccc(C#N)cc4)cc3F)n2)cc1
[1]
  EC50: 3630 nM
[4]
  EC50: 736 nM
[5]
  EC50: > 30000 nM
[2]
  EC50: 1160 nM
[3]
  EC50: 164 nM

## N#Cc1ccc(Nc2nccc(C(O)c3ccc(-c4ccc(C#N)cc4)cc3C(F)(F)F)n2)cc1 (configuration not stated)
[1]
  EC50: 212 nM
[4]
  EC50: 26 nM
[5]
  EC50: 552 nM
[2]
  EC50: 59 nM
[3]
  EC50: 26 nM

## N#Cc1ccc(Nc2nccc([C@@H](O)c3ccc(-c4ccc(C#N)cc4)cc3Cl)n2)cc1
[1]
  EC50: 53 nM
[4]
  EC50: 3.2 nM
[5]
  EC50: 128 nM
[2]
  EC50: 14 nM
[3]
  EC50: 3 nM
